Laboratory results from patent US4496735A, “Certain pyridyloxy-or-thio-phenyl propenoic acid derivatives” (Maruko Seiyaku Co., Ltd., priority 1982, dated 1985).
Counter-ions that a name gives are not always drawn. Like-named read-outs stand apart in the source and are kept apart here.

How the values were obtained:
[1] = test system: ddY male mice; experiment: Acute Toxicity; assay type: in vivo; details: i.p., mortality one week after administration, Behrens-Karber method, 10080 min
Method: (§1) The test compound was administered intraperitoneally to ddY male mice weighing 22 to 24 g and LD50 was determined by the Behrens-Karber method [Arch. exp. Path. Pharmak., 177, 379 (1935)] from the mortality one week after administration.

[2] = test system: Arachidonic Acid-Induced Sudden Death; experiment: Effect on Arachidonic Acid-Induced Sudden Death in Rabbit; assay type: in vivo, male rabbits; details: for % Protection / Ratio of Mortality/Total Number: 20 mg/kg i.p. 2 hours before 1.4 mg/kg sodium arachidonate (ear vein); for % Protection: 30 minutes; for Ratio of Mortality/Total Number: mortality at 30 minutes; for protection against the arachidonic acid-induced sudden death in rabbits (in words): conclusion in words
Description: The compounds of the present invention having the formula (I) and the pharmaceutically acceptable salts thereof thus obtained have a strong inhibitory activity on thromboxane A2 synthetase. A typical in vivo test method for evaluating compounds which may be useful as a so-called anti-thrombotic agent has been reported in literature and this method comprises determining the prevention of sudden death of rabbits caused by arachidonic acid, as reported in, for example, Agents and Actions, 7, 481 (1977); Pharmacology, 14, 522 (1976); Science, 183, 1085 (1974), etc.
More specifically, sodium arachidonate is administered intravenously to rabbits at a dose of about 1.4 mg/kg to cause a sudden death within a few minutes due to platelet aggregation and lung embolus.
According to the method of Silver et al [Science, 183, 1085 (1974)], 20 mg/kg of the test compound was administered intraperitoneally into male rabbits (8 or 10 rabbits per group), each weighing 2.2 to 2.8 kg, and 2 hours after the administration 1.4 mg/kg of sodium arachidonate was administered to the rabbit from an ear vein. The mortality of the rabbits was then calculated 30 minutes after the administration of sodium arachidonate.

[3] = test system: thromboxane A2 synthesis (thromboxane A2 synthetase); experiment: Inhibition of Thromboxane A2 Synthesis (collagen-stimulated rabbit platelet-rich plasma, thromboxane B2 by radioimmunoassay); assay type: cell-based; details: Oryctolagus cuniculus, 5 min, read-out: IC50 on Thromboxane A2 Synthesis
Method: Rabbit platelet-rich plasma (PRP, 6×10^8 platelets/ml) and the test compound was pre-incubated at 37° C. for 5 minutes and, after adding collagen to the mixture at a concentration of 13 ug/ml, the resulting mixture was incubated at 37° C. for 5 minutes. Then, the reaction was terminated by rendering the mixture […] with hydrochloric acid and the amount of thromboxane B2 produced was quantitatively determined by the radioimmunoassay.

[4] = test system: platelet aggregation (collagen), rabbit platelet-rich plasma; experiment: Inhibition of Platelet Aggregation induced by collagen; assay type: cell-based; details: for IC50: Oryctolagus cuniculus, Platelet, rabbit PRP, collagen 10 ug/ml, 37° C.; for inhibitory activity on platelet aggregation induced by collagen (in words): conclusion in words
Method: (§2) Rabbit platelet-rich plasma was pre-incubated at 37° C. for 1 minute and, after adding the test compound, arachidonic acid or collagen was added thereto at a concentration of 100 ug/ml or 10 ug/ml, respectively. The aggregation of platelets was recorded using an aggregometer and shown in Table 2 in terms of IC50 value.

[5] = test system: platelet aggregation (arachidonic acid), rabbit platelet-rich plasma; experiment: Inhibition of Platelet Aggregation induced by arachidonic acid; assay type: cell-based; details: for IC50: Oryctolagus cuniculus, Platelet, rabbit PRP, arachidonic acid 100 ug/ml, 37° C.; for inhibitory activity on platelet aggregation induced by arachidonic acid (in words): conclusion in words
Method: as §2

[6] = Acute Toxicity; assay type: in vivo; details: mouse, in vivo, ip; ddY male mice; i.p.; mortality one week after administration; Behrens-Karber method
Method: as §1

[7] = rabbit PRP, 6×10^8 platelets/ml, collagen 13 ug/ml, 37° C., 5 minutes

SMILES | LD50 [1] [mg/kg] | % Protection [2] [%] | Ratio of Mortality/Total Number [2] | IC50 [3] [µM] | IC50 [4] [µM] | inhibitory activity on platelet aggregation induced by collagen (in words) [4] | IC50 [5] [µM] | inhibitory activity on platelet aggregation induced by arachidonic acid (in words) [5] | IC50 [3, 7] [µM] | LD50 at 168 h [6] [mg/kg] | protection against the arachidonic acid-induced sudden death in rabbits (in words) [2]
CCCCCCCCCn1ccnc1 [Compound A, Nonylimidazole, reference compound] | 59 | 50 | 5/10 | – | – | – | – | – | – | – | –
Cl.O=C(O)c1ccc(OCCn2ccnc2)cc1 [Compound B, 4-(2-Imidazol-1-ylethoxy)benzoic acid hydrochloride, reference compound] | – | – | – | 5.7 | 400 | very weak inhibitory activity | > 1000 | very weak inhibitory activity | – | – | –
CC(=Cc1ccc(Cc2cccnc2)cc1)C(=O)O.Cl [Compound C, 2-Methyl-3-[4-(3-pyridylmethyl)phenyl]propenoic acid hydrochloride, reference compound] | – | – | – | – | 420 | very weak inhibitory activity | > 1000 | very weak inhibitory activity | 0.22 | 220 | –
CC(=Cc1ccc(Oc2cccnc2)cc1)C(=O)O.Cl [Compound D, 2-Methyl-3-[4-(3-pyridyloxy)phenyl]propenoic acid hydrochloride] | – | 100 | 0/10 | – | 36 | – | – | – | 1 | 350 | strong protection
CC(=Cc1ccc(Oc2cccnc2)cc1)C(=O)NC1CCCCC1.Cl [Compound E, N-Cyclohexyl-2-methyl-3-[4-(3-pyridyloxy)phenyl]propenamide hydrochloride] | – | 75 | 2/8 | – | 47 | – | 31 | – | 5.9 | 210 | strong protection
CC(=Cc1ccc(Sc2ccncc2)cc1)C(=O)O [Compound F, 2-Methyl-3-[4-(4-pyridylthio)phenyl]propenoic acid hydrochloride] | – | – | – | – | 22 | – | – | – | 0.31 | – | –
CC(=Cc1ccc(Oc2cccnc2)cc1)C(N)=O.Cl [Compound G, 2-Methyl-3-[4-(3-pyridyloxy)phenyl]propenamide hydrochloride] | – | – | – | – | 56 | – | 335 | – | 0.56 | 310 | –
